Results published in PubChem BioAssay AID1259407 (Chemical Carcinogenesis Research Information System (CCRIS), 2018).
Activity calls are given as the source filed them. How the calls were made is not given here.

Test system: CCRIS mutagenicity, Ames/micronucleus/aberration tests
Test: CCRIS mutagenicity studies
[1] = Test System: AMES SALMONELLA TYPHIMURIUM, Strain/Indicator: TA100, Metabolic Activation: NONE, Method: STANDARD PLATE
[2] = Test System: AMES SALMONELLA TYPHIMURIUM, Strain/Indicator: TA98, Metabolic Activation: NONE, Method: PREINCUBATION
[3] = Test System: AMES SALMONELLA TYPHIMURIUM, Strain/Indicator: TA98, Metabolic Activation: RAT, LIVER, S-9, AROCLOR 1254, Method: PREINCUBATION
[4] = Test System: AMES SALMONELLA TYPHIMURIUM, Strain/Indicator: TA100, Metabolic Activation: NONE, Method: PREINCUBATION
[5] = Test System: AMES SALMONELLA TYPHIMURIUM, Strain/Indicator: TA100, Metabolic Activation: RAT, LIVER, S-9, AROCLOR 1254, Method: PREINCUBATION
[6] = Test System: AMES SALMONELLA TYPHIMURIUM, Strain/Indicator: TA102, Metabolic Activation: RAT, LIVER, S-9, AROCLOR 1254, Method: PREINCUBATION
[7] = Test System: AMES SALMONELLA TYPHIMURIUM, Strain/Indicator: TA104, Metabolic Activation: RAT, LIVER, S-9, AROCLOR 1254, Method: PREINCUBATION
[8] = Test System: AMES SALMONELLA TYPHIMURIUM, Strain/Indicator: TA1535, Metabolic Activation: RAT, LIVER, S-9, AROCLOR 1254, Method: PREINCUBATION
[9] = Test System: AMES SALMONELLA TYPHIMURIUM, Strain/Indicator: TA1538, Metabolic Activation: RAT, LIVER, S-9, AROCLOR 1254, Method: PREINCUBATION
[10] = Test System: AMES SALMONELLA TYPHIMURIUM, Strain/Indicator: TA98, Metabolic Activation: RAT, LIVER, S-9, AROCLOR 1254, Method: STANDARD PLATE

For `O=[N+]([O-])c1cccc2c(Cl)nsc12`, which mutagenic call [1] is on record?
Its mutagenic call is “active; positive”.

With `CCC(C)NC(=O)C=Cc1ccc([N+](=O)[O-])o1` (centres undefined) as the compound, how does the mutagenic call [2] read?
Its mutagenic call is “active; positive”.

How did the mutagenic call (Test System: AMES SALMONELLA TYPHIMURIUM, Strain/Indicator: TA97, Metabolic Activation: NONE, Method: PREINCUBATION) turn out when `Nc1nc(=O)n([C@H]2C[C@H](O)[C@@H](CO)O2)cc1CCCl` was run?
Its mutagenic call is “inactive; negative”.

And the mutagenic call (Test System: AMES SALMONELLA TYPHIMURIUM, Strain/Indicator: TA97, Metabolic Activation: RAT, LIVER, S-9, AROCLOR 1254, Method: PREINCUBATION)?
Its mutagenic call is “inactive; negative”.

What about the mutagenic call [2] of the same compound?
The mutagenic call was “inactive; negative”.

What about the mutagenic call [3] of the same compound?
Its mutagenic call is “inactive; negative”.

What about the mutagenic call [4] of the same compound?
The mutagenic call was “inactive; negative”.

What about the mutagenic call [5] of the same compound?
Its mutagenic call is “inactive; negative”.

And the mutagenic call (Test System: AMES SALMONELLA TYPHIMURIUM, Strain/Indicator: TA102, Metabolic Activation: NONE, Method: PREINCUBATION)?
The mutagenic call was “inactive; negative”.

And the mutagenic call [6]?
Its mutagenic call is “inactive; negative”.

And the mutagenic call (Test System: AMES SALMONELLA TYPHIMURIUM, Strain/Indicator: TA104, Metabolic Activation: NONE, Method: PREINCUBATION)?
The mutagenic call was “inactive; negative”.

What about the mutagenic call [7] of the same compound?
The mutagenic call was “inactive; negative”.

What about the mutagenic call (Test System: AMES SALMONELLA TYPHIMURIUM, Strain/Indicator: TA1535, Metabolic Activation: NONE, Method: PREINCUBATION) of the same compound?
The mutagenic call was “inactive; negative”.

What about the mutagenic call [8] of the same compound?
Its mutagenic call is “inactive; negative”.

What about the mutagenic call (Test System: AMES SALMONELLA TYPHIMURIUM, Strain/Indicator: TA1537, Metabolic Activation: NONE, Method: PREINCUBATION) of the same compound?
The mutagenic call was “inactive; negative”.

What about the mutagenic call (Test System: AMES SALMONELLA TYPHIMURIUM, Strain/Indicator: TA1537, Metabolic Activation: RAT, LIVER, S-9, AROCLOR 1254, Method: PREINCUBATION) of the same compound?
The mutagenic call was “inactive; negative”.

And the mutagenic call (Test System: AMES SALMONELLA TYPHIMURIUM, Strain/Indicator: TA1538, Metabolic Activation: NONE, Method: PREINCUBATION)?
The mutagenic call was “inactive; negative”.

What about the mutagenic call [9] of the same compound?
Its mutagenic call is “inactive; negative”.

And the mutagenic call (Test System: CHINESE HAMSTER V-79, Strain/Indicator: V-79/8-AZAGUANINE, Metabolic Activation: NONE)?
The mutagenic call was “inactive; negative”.

`CN(C)c1ccc(CCO)cc1` was tested. Which mutagenic call (Test System: AMES SALMONELLA TYPHIMURIUM, Strain/Indicator: TA98, Metabolic Activation: HAMSTER, LIVER, S-9, AROCLOR 1254 (5, 10, 20%), Method: STANDARD PLATE) did it give?
Its mutagenic call is “active; positive”.

And the mutagenic call (Test System: AMES SALMONELLA TYPHIMURIUM, Strain/Indicator: TA98, Metabolic Activation: RAT, LIVER, S-9, AROCLOR 1254 (20%), Method: STANDARD PLATE)?
Its mutagenic call is “active; positive”.

And the mutagenic call (Test System: AMES SALMONELLA TYPHIMURIUM, Strain/Indicator: TA98, Metabolic Activation: RAT, LIVER, S-9, AROCLOR 1254, HAMSTER, LIVER, S-9, AROCLOR 1254, Method: STANDARD PLATE)?
The mutagenic call was “active; positive”.

And the mutagenic call (Test System: AMES SALMONELLA TYPHIMURIUM, Strain/Indicator: TA1538, Metabolic Activation: HAMSTER, LIVER, S-9, AROCLOR 1254 (2.5-20%), Method: STANDARD PLATE)?
Its mutagenic call is “active; positive”.

What about the mutagenic call (Test System: AMES SALMONELLA TYPHIMURIUM, Strain/Indicator: TA1538, Metabolic Activation: RAT, LIVER, S-9, AROCLOR 1254 (5, 10, 20%), Method: STANDARD PLATE) of the same compound?
Its mutagenic call is “active; positive”.

And the mutagenic call (Test System: AMES SALMONELLA TYPHIMURIUM, Strain/Indicator: TA1538, Metabolic Activation: RAT, LIVER, S-9, AROCLOR 1254, HAMSTER, LIVER, S-9, AROCLOR 1254, Method: STANDARD PLATE)?
Its mutagenic call is “active; positive”.

And the mutagenic call (Test System: MOUSE LYMPHOMA, Strain/Indicator: L5178Y (TK+/TK-), Metabolic Activation: RAT, LIVER, S-9, AROCLOR 1254, Method: SUSPENSION/PLATE)?
The mutagenic call was “active; positive. reevaluation of results: inconclusive”.

And the mutagenic call (Test System: Mouse lymphoma, Strain/Indicator: L5178Y (tk+/tk-), Metabolic Activation: None, Method: Suspension/plate)?
Its mutagenic call is “inactive; negative”.

With `CC(=O)Nc1ccc2ncccc2c1` as the compound, how does the mutagenic call [2] read?
The mutagenic call was “inactive; negative”.

And the mutagenic call (Test System: AMES SALMONELLA TYPHIMURIUM, Strain/Indicator: TA98, Metabolic Activation: RAT, LIVER, S-9, KANECHLOR 500, Method: PREINCUBATION)?
Its mutagenic call is “inactive; negative”.

What about the mutagenic call [4] of the same compound?
The mutagenic call was “inactive; negative”.

What about the mutagenic call (Test System: AMES SALMONELLA TYPHIMURIUM, Strain/Indicator: TA100, Metabolic Activation: RAT, LIVER, S-9, KANECHLOR 500, Method: PREINCUBATION) of the same compound?
The mutagenic call was “active; positive”.

With `CC(O)C(=O)NCCO` (centres undefined) as the compound, how does the mutagenic call [10] read?
The mutagenic call was “active; positive”.

And the mutagenic call (Test System: AMES SALMONELLA TYPHIMURIUM, Strain/Indicator: TA1538, Metabolic Activation: RAT, LIVER, S-9, AROCLOR 1254, Method: STANDARD PLATE)?
The mutagenic call was “active; positive”.

For `N#Cc1c(Cl)cccc1Cl`, which mutagenic call (Test System: AMES SALMONELLA TYPHIMURIUM, Strain/Indicator: TA97, Metabolic Activation: NONE, Method: STANDARD PLATE) is on record?
The mutagenic call was “inactive; negative”.

And the mutagenic call (Test System: AMES SALMONELLA TYPHIMURIUM, Strain/Indicator: TA97, Metabolic Activation: RAT, LIVER, S-9, AROCLOR 1254, Method: STANDARD PLATE)?
The mutagenic call was “inactive; negative”.

What about the mutagenic call (Test System: AMES SALMONELLA TYPHIMURIUM, Strain/Indicator: TA98, Metabolic Activation: NONE, Method: STANDARD PLATE) of the same compound?
Its mutagenic call is “inactive; negative”.

What about the mutagenic call [10] of the same compound?
The mutagenic call was “inactive; negative”.

And the mutagenic call [1]?
Its mutagenic call is “inactive; negative”.

And the mutagenic call (Test System: AMES SALMONELLA TYPHIMURIUM, Strain/Indicator: TA100, Metabolic Activation: RAT, LIVER, S-9, AROCLOR 1254, Method: STANDARD PLATE)?
Its mutagenic call is “inactive; negative”.

And the mutagenic call (Test System: AMES SALMONELLA TYPHIMURIUM, Strain/Indicator: TA102, Metabolic Activation: NONE, Method: STANDARD PLATE)?
The mutagenic call was “inactive; negative”.

And the mutagenic call (Test System: AMES SALMONELLA TYPHIMURIUM, Strain/Indicator: TA102, Metabolic Activation: RAT, LIVER, S-9, AROCLOR 1254, Method: STANDARD PLATE)?
Its mutagenic call is “inactive; negative”.

For `CNc1c(C)cc2ncccc2c1N`, which mutagenic call [2] is on record?
The mutagenic call was “inactive; negative”.

What about the mutagenic call [3] of the same compound?
The mutagenic call was “inactive; negative”.

What about the mutagenic call [4] of the same compound?
Its mutagenic call is “inactive; negative”.

And the mutagenic call [5]?
The mutagenic call was “inactive; negative”.

Which mutagenic call (End Point: IN VITRO CHROMOSOMAL ABERRATIONS, Test System: CHINESE HAMSTER V79-E CELLS, Metabolic Activation: NONE) does the source give for `CN(N=O)C(=O)Nc1ccc(Br)cc1` here?
Its mutagenic call is “active; weakly positive”.

How did the mutagenic call [3] turn out when `CC(=O)NC[C@@H](O)COc1cccc2ccccc12` was run?
The mutagenic call was “inactive; negative”.

What about the mutagenic call [5] of the same compound?
Its mutagenic call is “inactive; negative”.

And the mutagenic call [6]?
The mutagenic call was “inactive; negative”.

What about the mutagenic call [7] of the same compound?
The mutagenic call was “inactive; negative”.

What about the mutagenic call [8] of the same compound?
Its mutagenic call is “inactive; negative”.

What about the mutagenic call [9] of the same compound?
Its mutagenic call is “inactive; negative”.

What about the mutagenic call (Test System: AMES SALMONELLA TYPHIMURIUM, Strain/Indicator: YG1021, Metabolic Activation: RAT, LIVER, S-9, AROCLOR 1254, Method: PREINCUBATION) of the same compound?
The mutagenic call was “inactive; negative”.

And the mutagenic call (Test System: AMES SALMONELLA TYPHIMURIUM, Strain/Indicator: YG1024, Metabolic Activation: RAT, LIVER, S-9, AROCLOR 1254, Method: PREINCUBATION)?
The mutagenic call was “inactive; negative”.

And the mutagenic call (Test System: AMES SALMONELLA TYPHIMURIUM, Strain/Indicator: YG1026, Metabolic Activation: RAT, LIVER, S-9, AROCLOR 1254, Method: PREINCUBATION)?
Its mutagenic call is “inactive; negative”.

And the mutagenic call (Test System: AMES SALMONELLA TYPHIMURIUM, Strain/Indicator: YG1029, Metabolic Activation: RAT, LIVER, S-9, AROCLOR 1254, Method: PREINCUBATION)?
Its mutagenic call is “inactive; negative”.

What about the mutagenic call (Test System: AMES SALMONELLA TYPHIMURIUM, Strain/Indicator: YG1041, Metabolic Activation: RAT, LIVER, S-9, AROCLOR 1254, Method: PREINCUBATION) of the same compound?
Its mutagenic call is “inactive; negative”.

And the mutagenic call (Test System: AMES SALMONELLA TYPHIMURIUM, Strain/Indicator: YG1042, Metabolic Activation: RAT, LIVER, S-9, AROCLOR 1254, Method: PREINCUBATION)?
Its mutagenic call is “inactive; negative”.

And the mutagenic call (Test System: AMES SALMONELLA TYPHIMURIUM, Strain/Indicator: YG3003, Metabolic Activation: RAT, LIVER, S-9, AROCLOR 1254, Method: PREINCUBATION)?
The mutagenic call was “inactive; negative”.
